Assay results reported in the supplement of paper PMC10933113.
Counter-ions that a name gives are not always drawn. ± gives the uncertainty stated by the source.

Key:
[1] = tested on: KeratinoSens (HaCaT ARE-luciferase) cells; experiment: AC50 of Nrf2/ARE luciferase induction; higher = less potent; conditions: exposure time: 24 h
THP-1 [2] = experiment: efficacy of IL-8 induction relative to DMSO (% activity); higher = stronger induction; conditions: exposure time: 18 h
[3] = tested on: lysine peptide Ac-RFAAKAA-COOH; experiment: efficacy of lysine peptide change (negative = depletion) (% activity); higher = less depletion; conditions: incubation time: 24 h
[4] = tested on: cysteine peptide Ac-RFAACAA-COOH; experiment: efficacy of cysteine peptide change (negative = depletion) (% activity); higher = less depletion; conditions: incubation time: 24 h
[5] = tested on: KeratinoSens (HaCaT ARE-luciferase) cells; experiment: efficacy of ARE luciferase induction relative to DMSO (% activity over DMSO); higher = stronger induction; conditions: exposure time: 24 h
[6] = tested on: cysteine peptide Ac-RFAACAA-COOH; experiment: AC50 of cysteine peptide concentration-response (direction given by sign of efficacy); higher = less potent; conditions: incubation time: 24 h
[7] = tested on: KeratinoSens (HaCaT ARE-luciferase) cells; experiment: cytotoxicity AC50 (CellTiter-Fluor viability); higher = less cytotoxic; conditions: exposure time: 24 h
THP-1 [8] = experiment: AC50 of IL-8 secretion induction; higher = less potent; conditions: exposure time: 18 h

CN1C[C@H](C(=O)N[C@]2(C)O[C@@]3(O)[C@@H]4CCCN4C(=O)[C@H](Cc4ccccc4)N3C2=O)C=C2c3cccc4[nH]cc(c34)C[C@H]21 [Ergotamine D-tartrate*]
AC50 of Nrf2/ARE luciferase induction [1]: 23.1 µM
efficacy of IL-8 induction (THP-1 [2]): 15.3 ± 4.1
efficacy of lysine peptide change [3]: 14.3 ± 3.5
efficacy of cysteine peptide change [4]: -98.5 ± 6.4
efficacy of ARE luciferase induction [5]: 61.1 ± 17
AC50 [6]: 11.4 ± 2.6 µM

CCOc1ccc2nc3cc(N)ccc3c(N)c2c1 [Ethacridine lactate monohydrate]
AC50 of Nrf2/ARE luciferase induction [1]: 29.4 µM
efficacy of IL-8 induction (THP-1 [2]): 13.6 ± 2.8
efficacy of lysine peptide change [3]: 107 ± 12
efficacy of cysteine peptide change [4]: -93.5 ± 7.5
efficacy of ARE luciferase induction [5]: 86.2 ± 47
AC50 [6]: 0.29 ± 0.07 µM

CC/C=C\C/C=C\C/C=C\CCCCCCCC(=O)OCC [Ethyl linolenate]
AC50 of Nrf2/ARE luciferase induction [1]: 18.4 µM
cytotoxicity AC50 [7]: 32.9 ± 2.2 µM
efficacy of IL-8 induction (THP-1 [2]): 14.7 ± 5.5
efficacy of lysine peptide change [3]: -51.8 ± 5.7
efficacy of cysteine peptide change [4]: -100 ± 11
efficacy of ARE luciferase induction [5]: 95.1 ± 71
AC50 [6]: 9.27 ± 3.2 µM

c1ccc(CCNc2nc(-c3ccccc3)cs2)cc1 [Fanetizole]
AC50 of Nrf2/ARE luciferase induction [1]: 33.2 µM
cytotoxicity AC50 [7]: 41.4 ± 2.8 µM
efficacy of IL-8 induction (THP-1 [2]): 45.8 ± 14
efficacy of lysine peptide change [3]: 35 ± 23
efficacy of cysteine peptide change [4]: -113 ± 17
efficacy of ARE luciferase induction [5]: 119 ± 37
AC50 [6]: 40 ± 4.6 µM

COC(=O)Nc1nc2cc(Sc3ccccc3)ccc2[nH]1 [Fenbendazole]
AC50 of IL-8 secretion induction (THP-1 [8]): 39.8 µM
cytotoxicity AC50 [7]: 3.46 ± 1.9 µM
efficacy of IL-8 induction (THP-1 [2]): 213 ± 14
efficacy of lysine peptide change [3]: 33.8 ± 41
efficacy of cysteine peptide change [4]: 0
efficacy of ARE luciferase induction [5]: 46 ± 53

O=[N+]([O-])c1ccc(Oc2ccc(C(F)(F)F)cc2[N+](=O)[O-])cc1 [Fluorodifen]
AC50 of IL-8 secretion induction (THP-1 [8]): 43.1 µM
cytotoxicity AC50 [7]: 29.6 ± 5.3 µM
efficacy of IL-8 induction (THP-1 [2]): 109 ± 12
efficacy of lysine peptide change [3]: 2.81 ± 12
efficacy of cysteine peptide change [4]: -4.44 ± 7.7
efficacy of ARE luciferase induction [5]: 45.8 ± 80

N#C/C=C/C#N [Fumaronitrile]
AC50 of Nrf2/ARE luciferase induction [1]: 32.9 µM
cytotoxicity AC50 [7]: 23.1 ± 6.4 µM
efficacy of IL-8 induction (THP-1 [2]): 8.38 ± 7.6
efficacy of lysine peptide change [3]: -12.4 ± 34
efficacy of cysteine peptide change [4]: -104 ± 7.3
efficacy of ARE luciferase induction [5]: 193 ± 39
AC50 [6]: 3.3 ± 0.42 µM

c1ccc2c(c1)OCC(C1=NCCN1)O2 (stereo unspecified) [Idazoxan]
AC50 of Nrf2/ARE luciferase induction [1]: 12.6 µM
cytotoxicity AC50 [7]: 22.4 µM
efficacy of IL-8 induction (THP-1 [2]): 12.4 ± 3.5
efficacy of lysine peptide change [3]: -1.64 ± 20
efficacy of cysteine peptide change [4]: -124 ± 14
efficacy of ARE luciferase induction [5]: 39.9 ± 3.1
AC50 [6]: 27.3 ± 3.8 µM

[CH3][Hg][Cl] [Methyl mercuric (II) chloride]
AC50 of Nrf2/ARE luciferase induction [1]: 3.98 µM
cytotoxicity AC50 [7]: 6.57 ± 0.44 µM
efficacy of IL-8 induction (THP-1 [2]): 73.6 ± 0.91
efficacy of lysine peptide change [3]: 0
efficacy of cysteine peptide change [4]: -97.5 ± 1.4
efficacy of ARE luciferase induction [5]: 188 ± 110
AC50 [6]: 46.5 ± 3.1 µM

CCCCNC(=S)NCCCC [N,N'-Dibutylthiourea]
AC50 of IL-8 secretion induction (THP-1 [8]): 89.1 µM
cytotoxicity AC50 [7]: 62 ± 25 µM
efficacy of IL-8 induction (THP-1 [2]): 90.2 ± 38
efficacy of lysine peptide change [3]: 85.4 ± 13
efficacy of cysteine peptide change [4]: -32.7 ± 21
efficacy of ARE luciferase induction [5]: 41.8 ± 35

S=C(NC1CCCCC1)NC1CCCCC1 [N,N'-Dicyclohexylthiourea]
AC50 of IL-8 secretion induction (THP-1 [8]): 85.9 µM
cytotoxicity AC50 [7]: 53.1 ± 25 µM
efficacy of IL-8 induction (THP-1 [2]): 84.8 ± 36
efficacy of lysine peptide change [3]: -53.1 ± 24
efficacy of cysteine peptide change [4]: 5.83 ± 10
efficacy of ARE luciferase induction [5]: 82 ± 95

c1ccc(Nc2ccc(Nc3ccccc3)cc2)cc1 [N,N'-Diphenyl-p-phenylenediamine]
AC50 of Nrf2/ARE luciferase induction [1]: 22.5 µM
cytotoxicity AC50 [7]: 55.2 ± 14 µM
efficacy of IL-8 induction (THP-1 [2]): 9.77 ± 9.9
efficacy of lysine peptide change [3]: -22.2 ± 3.3
efficacy of cysteine peptide change [4]: -119 ± 12
efficacy of ARE luciferase induction [5]: 54.7 ± 14
AC50 [6]: 23 ± 18 µM

CN(C)c1ccc(N)cc1 [N,N-Dimethyl-p-phenylenediamine]
AC50 of Nrf2/ARE luciferase induction [1]: 17.1 µM
efficacy of IL-8 induction (THP-1 [2]): 21 ± 7.2
efficacy of lysine peptide change [3]: -17.1 ± 8.3
efficacy of cysteine peptide change [4]: -130 ± 19
efficacy of ARE luciferase induction [5]: 84.5 ± 29
AC50 [6]: 8.18 ± 2.3 µM

COP(=O)(OC)OC(Br)C(Cl)(Cl)Br (stereo unspecified) [Naled]
AC50 of Nrf2/ARE luciferase induction [1]: 31.8 µM
cytotoxicity AC50 [7]: 46.5 ± 3.1 µM
efficacy of IL-8 induction (THP-1 [2]): 8.61 ± 7.6
efficacy of lysine peptide change [3]: -3.08 ± 5.3
efficacy of cysteine peptide change [4]: -89.9 ± 2.4
efficacy of ARE luciferase induction [5]: 307 ± 93
AC50 [6]: 0.93 ± 0.12 µM

CCCOc1ccc2[nH]c(NC(=O)OC)nc2c1 [Oxibendazole]
AC50 of IL-8 secretion induction (THP-1 [8]): 27.7 µM
cytotoxicity AC50 [7]: 2.73 ± 0.38 µM
efficacy of IL-8 induction (THP-1 [2]): 36.3 ± 9.3
efficacy of lysine peptide change [3]: 50.4 ± 6.8
efficacy of cysteine peptide change [4]: 0
efficacy of ARE luciferase induction [5]: 30.2 ± 9.6

C=CC(=O)OCC(COC(=O)C=C)(COC(=O)C=C)COC(=O)C=C [Pentaerythritol tetraacrylate]
AC50 of Nrf2/ARE luciferase induction [1]: 15.8 µM
cytotoxicity AC50 [7]: 25.3 ± 4.1 µM
efficacy of IL-8 induction (THP-1 [2]): 23.5 ± 10
efficacy of lysine peptide change [3]: -27.5 ± 6
efficacy of cysteine peptide change [4]: -102 ± 14
efficacy of ARE luciferase induction [5]: 118 ± 5.8
AC50 [6]: 3.11 ± 0.76 µM

O=C(/C=C/C=C/c1ccc2c(c1)OCO2)N1CCCCC1 [Piperine]
AC50 of Nrf2/ARE luciferase induction [1]: 29.1 µM
cytotoxicity AC50 [7]: 44 ± 11 µM
efficacy of IL-8 induction (THP-1 [2]): 13.7 ± 14
efficacy of lysine peptide change [3]: 1.32 ± 18
efficacy of cysteine peptide change [4]: -72.8 ± 22
efficacy of ARE luciferase induction [5]: 76 ± 12
AC50 [6]: 80.8 ± 18 µM

O=C1OC(CCN2CCCCC2)OC1(c1ccccc1)c1ccccc1 (stereo unspecified) [Pipoxolan hydrochloride]
AC50 of Nrf2/ARE luciferase induction [1]: 20.7 µM
cytotoxicity AC50 [7]: 33.5 ± 2.7 µM
efficacy of IL-8 induction (THP-1 [2]): 0
efficacy of lysine peptide change [3]: -49.6 ± 25
efficacy of cysteine peptide change [4]: -104 ± 2.6
efficacy of ARE luciferase induction [5]: 107 ± 83
AC50 [6]: 4.43 ± 1.9 µM

COc1cccc2c1C(=O)c1c(O)c3c(c(O)c1C2=O)C[C@@](O)(C(=O)CO)C[C@@H]3O[C@H]1C[C@H](N)[C@H](O[C@@H]2CCCCO2)[C@H](C)O1 [Pirarubicin*]
AC50 of Nrf2/ARE luciferase induction [1]: 20.5 µM
cytotoxicity AC50 [7]: 17.9 ± 6.5 µM
efficacy of IL-8 induction (THP-1 [2]): 21.1 ± 6.6
efficacy of lysine peptide change [3]: -33.9 ± 4.4
efficacy of cysteine peptide change [4]: -101 ± 3.8
efficacy of ARE luciferase induction [5]: 638 ± 360
AC50 [6]: 3.01 ± 1.5 µM

CCCSS/C(CCO)=C(/C)N(C=O)Cc1cnc(C)nc1N [Prosultiamine]
AC50 of Nrf2/ARE luciferase induction [1]: 15.8 µM
cytotoxicity AC50 [7]: 26.1 ± 1.8 µM
efficacy of IL-8 induction (THP-1 [2]): 30.5 ± 12
efficacy of lysine peptide change [3]: 154 ± 29
efficacy of cysteine peptide change [4]: -112 ± 9.3
efficacy of ARE luciferase induction [5]: 433 ± 21
AC50 [6]: 1.59 ± 0.18 µM

CC(C)=CC1C(C(=O)OCc2coc(Cc3ccccc3)c2)C1(C)C (stereo unspecified) [Resmethrin]
AC50 of Nrf2/ARE luciferase induction [1]: 46.5 µM
efficacy of IL-8 induction (THP-1 [2]): 4.15 ± 7.2
efficacy of lysine peptide change [3]: -58 ± 4.8
efficacy of cysteine peptide change [4]: -122 ± 8.3
efficacy of ARE luciferase induction [5]: 69.7 ± 30
AC50 [6]: 58.1 ± 19 µM

O=C(N/N=C/c1ccccc1O)c1ccncc1 [Salinazid]
AC50 of IL-8 secretion induction (THP-1 [8]): 20 µM
cytotoxicity AC50 [7]: 4.76 ± 1.3 µM
efficacy of IL-8 induction (THP-1 [2]): 45.6 ± 14
efficacy of lysine peptide change [3]: 16.7 ± 23
efficacy of cysteine peptide change [4]: -3.5 ± 6.1
efficacy of ARE luciferase induction [5]: -34.3 ± 30

O=C(Nc1ncc([N+](=O)[O-])s1)c1cccs1 [Tenonitrozole]
AC50 of Nrf2/ARE luciferase induction [1]: 8.8 µM
cytotoxicity AC50 [7]: 12.7 ± 2 µM
efficacy of IL-8 induction (THP-1 [2]): 6.75 ± 5.9
efficacy of lysine peptide change [3]: 33.7 ± 8.7
efficacy of cysteine peptide change [4]: -93.3 ± 27
efficacy of ARE luciferase induction [5]: 27.5 ± 48
AC50 [6]: 96.8 ± 13 µM

O=C(O)Cc1cc(I)c(Oc2cc(I)c(O)c(I)c2)c(I)c1 [Tetrac]
AC50 of Nrf2/ARE luciferase induction [1]: 43.1 µM
efficacy of IL-8 induction (THP-1 [2]): 0
efficacy of lysine peptide change [3]: 6.09 ± 18
efficacy of cysteine peptide change [4]: -91.9 ± 9.5
efficacy of ARE luciferase induction [5]: 377 ± 69
AC50 [6]: 33.5 ± 7.5 µM

Cc1ccc(O)c2ncccc12 [Tiliquinol]
AC50 of IL-8 secretion induction (THP-1 [8]): 4.38 µM
cytotoxicity AC50 [7]: 2.47 ± 0.62 µM
efficacy of IL-8 induction (THP-1 [2]): 117 ± 19
efficacy of lysine peptide change [3]: -8.95 ± 16
efficacy of cysteine peptide change [4]: -11.2 ± 4.1
efficacy of ARE luciferase induction [5]: -35.2 ± 3.8

CC(C)CCCCCCCOC(=O)c1ccc(C(=O)OCCCCCCCC(C)C)c(C(=O)OCCCCCCCC(C)C)c1 [Triisodecyl trimellitate]
AC50 of Nrf2/ARE luciferase induction [1]: 42.2 µM
efficacy of IL-8 induction (THP-1 [2]): 13.5 ± 0.9
efficacy of lysine peptide change [3]: -10.8 ± 18
efficacy of cysteine peptide change [4]: -22.8 ± 5
efficacy of ARE luciferase induction [5]: 72.5 ± 41
AC50 [6]: 19.9 µM

[Cl][Bi]([Cl])([c]1ccccc1)([c]1ccccc1)[c]1ccccc1 [Triphenylbismuthine dichloride]
AC50 of Nrf2/ARE luciferase induction [1]: 14.2 µM
cytotoxicity AC50 [7]: 28.2 µM
efficacy of IL-8 induction (THP-1 [2]): 92.2 ± 110
efficacy of lysine peptide change [3]: 23.5 ± 22
efficacy of cysteine peptide change [4]: -96.9 ± 5.6
efficacy of ARE luciferase induction [5]: 95.5 ± 39
AC50 [6]: 0.85 ± 0.38 µM
